Assay results: patent US10828289B2, “Hair follicle stem cell activation and hair growth” (THE REGENTS OF THE UNIVERSITY OF CALIFORNIA, priority 2016, dated 2020)
Entries after “also recorded” stand apart in the source; their conditions may differ.

Experiments:
Assay type in all cases: in vivo, mouse
[1] = system: c-Myc; test: Immunoblotting of total protein preps from topically treated skin: c-Myc; conditions: 2 topical doses of 50 uM (48 hours), vs vehicle control
Description: (§1) Mice. Animals were acquired from Jackson Labs (K15-CrePR, Lgr5-CreER and Lgr6-CreER), Rutter Lab (Mpc^fl/fl) and Seth Lab (Ldha^fl/fl) and maintained under conditions set forth by IUCUC and ARC. For experiments that include analysis of the telogen stage of the hair cycle, animals were harvested at post-natal day 50, for telogen-anagen transition animals were harvested at day 70, and for anagen animals were harvested at post-natal day 90. For experiments that include analysis of transgenic animals, K15-CrePR animals were shaved and treated by intraperitoneal injections of mifepristone and Lgr5-CreER and Lgr6-CreER animals were shaved and treated with tamoxifen (10 mg/ml dissolved in sunflower seed oil, 2 mg per day for 3 days) during telogen (post-natal day 50), and monitored for hair regrowth following shaving. For FIGS. 6A-6G, wildtype C57BL/6J animals were shaved at post-natal day 50 and treated topically with Transderma Plo Gel Ultramax Base (TR220) (vehicle) or RCGD423 (50 uM) for indicated periods of time. Both male and female animals were used in this study in approximately equal numbers with no apparent difference in phenotype between genders. […]
(§2) Histology, Immunostaining and Immunoblotting. […] Images were collected on an Olympus BX43 Upright Microscope and Zeiss Model Axio Imager M1 Upright Fluorescence Microscope. […]

[2] = system: n-Myc; test: Immunoblotting of total protein preps from topically treated skin: n-Myc; conditions: 2 topical doses of 50 uM (48 hours), vs vehicle control
Description: as §1, §2

[3] = system: Ldha; test: Immunoblotting of total protein preps from topically treated skin: Ldha; conditions: 2 topical doses of 50 uM (48 hours), vs vehicle control
Description: as §1, §2

[4] = system: Ldh; test: Plate-reader Ldh activity assay on lysates from total epidermis after topical treatment; conditions: vs vehicle
Description: as §1, with “shaving.” for “shaving. For FIGS. 6A-6G, wildtype C57BL/6J animals were shaved at post-natal day 50 and treated topically with Transderma Plo Gel Ultramax Base (TR220) (vehicle) or RCGD423 (50 uM) for indicated periods of time. Both male and female animals were used in this study in approximately equal numbers with no apparent difference in phenotype between genders.”
Plate-reader Ldh assay. Ldh activity was determined in cell lysates by measuring the formation of soluble XTT formazan in direct relation to production of NADH over time at 475 nm at 37° C. using a Synergy-MX plate reader (Biotek Instruments). […] Protein content was determined using the BCA Protein Assay Kit (Thermo Scientific Pierce). […] Ldh activity was determined in cell lysates by measuring the change in absorbance of their common substrate or product, NADH, over time at 340 nm at 25° C. using a Synergy-MX plate reader (Biotek Instruments).

[5] = system: Ldh; test: In situ Ldh activity staining of skin sections after topical treatment; conditions: epidermis and dermis
Description: as §1, with “genders. All phenotypes described are representative of a minimum of n=3 littermate pairs as indicated in the description of each experiment.” for “genders.”

[6] = system: lactate; test: LC-MS-based metabolomics of lactate after topical treatment; conditions: 48 hours, vs vehicle
Description: as §1, with “time.” for “time. Both male and female animals were used in this study in approximately equal numbers with no apparent difference in phenotype between genders.”
Mass spectrometry-based metabolomics analysis. […] The samples were analyzed with an UltiMate 3000RSLC (Thermo Scientific) coupled to a Q Exactive mass spectrometer (Thermo Scientific). […] Metabolites were quantified with TraceFinder 3.3 using accurate mass measurements (<3 ppm) and retention times.

[7] = system: Stat-3; test: Immunostaining with phospho-Stat3 antibody in HFSCs after topical treatment
Description: as §1, §2

[8] = target: HFSCs; test: Immunohistochemistry for Ki-67 in HFSCs after topical treatment; conditions: same tissue
Description: as §1, §2

[9] = system: pStat1; test: IHC for pStat1 in topically treated skin; conditions: topical, shaved mice day 50, skin harvested 48 hours after treatment
Experimental: (§3) FIG. 5. Stimulation of Jak-Stat signaling and the hair cycle. RCGD423 was applied topically to shaved mice at day 50. 48 hours after treatment, the skin was harvested and prepared for IHC. […] Scale bars indicate 20 micrometers.
as §1, with “shaving.” for “shaving. For FIGS. 6A-6G, wildtype C57BL/6J animals were shaved at post-natal day 50 and treated topically with Transderma Plo Gel Ultramax Base (TR220) (vehicle) or RCGD423 (50 uM) for indicated periods of time. Both male and female animals were used in this study in approximately equal numbers with no apparent difference in phenotype between genders.”
as §2

[10] = system: pStat5; test: IHC for pStat5 in topically treated skin; conditions: topical, shaved mice day 50, skin harvested 48 hours after treatment
Experimental: as §3
as §1, with “shaving.” for “shaving. For FIGS. 6A-6G, wildtype C57BL/6J animals were shaved at post-natal day 50 and treated topically with Transderma Plo Gel Ultramax Base (TR220) (vehicle) or RCGD423 (50 uM) for indicated periods of time. Both male and female animals were used in this study in approximately equal numbers with no apparent difference in phenotype between genders.”
as §2

[11] = system: hair cycle; test: Topical treatment of shaved animals in telogen (day 50), hair cycle observation
Description: Mice. Animals were acquired from Jackson Labs (K15-CrePR, Lgr5-CreER and Lgr6-CreER), Rutter Lab (Mpc^fl/fl) and Seth Lab (Ldha^fl/fl) and maintained under conditions set forth by IUCUC and ARC. For experiments that include analysis of the telogen stage of the hair cycle, animals were harvested at post-natal day 50, for telogen-anagen transition animals were harvested at day 70, and for anagen animals were harvested at post-natal day 90. For experiments that include analysis of transgenic animals, K15-CrePR animals were shaved and treated by intraperitoneal injections of mifepristone and Lgr5-CreER and Lgr6-CreER animals were shaved and treated with tamoxifen (10 mg/ml dissolved in sunflower seed oil, 2 mg per day for 3 days) during telogen (post-natal day 50), and monitored for hair regrowth following shaving. For FIGS. 6A-6G, wildtype C57BL/6J animals were shaved at post-natal day 50 and treated topically with Transderma Plo Gel Ultramax Base (TR220) (vehicle) or RCGD423 (50 uM) for indicated periods of time. Both male and female animals were used in this study in approximately equal numbers with no apparent difference in phenotype between genders. All phenotypes described are representative of a minimum of n=3 littermate pairs as indicated in the description of each experiment. No statistical measure was used to determine the sample size beforehand, nor were statistics used to measure effects, as the results were essentially positive or negative as represented in the figures. The results described include data from all treated animals. The investigators were not blinded to allocation during the experimental data collection, nor were the experiments randomized. The results shown were representative images from at least three independently treated animals, and genotyping was performed both before and after animal treatment for confirmation.

[12] = topical treatment of animals in telogen (day 50)

Brc1ccc(Nc2nc(-c3ccccc3)cs2)cc1 [RCGD423]
c-Myc protein levels [1]: increased; also recorded: induced | n-Myc protein levels [2]: increased; also recorded: induced | Ldha protein levels [3]: increased; also recorded: induced | Ldh activity, in vitro measurement on lysates from total epidermis [4]: increase in activity | Ldh activity, in situ staining [5]: strong induction | lactate level [6]: large increase | Stat-3 activation (phospho-Stat3 immunostaining) [7]: activated | Ki-67 in HFSCs [8]: induction | effect on pStat1 [9]: does not dramatically affect | effect on pStat5 [10]: does not dramatically affect | hair cycle [11, 12]: robust acceleration of the hair cycle | interfollicular epidermis proliferation [11, 12]: minor hyperproliferation of the interfollicular epidermis | observed phenotype (entry into anagen) ([11]; topical, 50 uM, after 5 doses): pigmentation and hair growth, indicative of entry into anagen
